From patent US8158674B2, “Chalcogenoxanthylium dyes for purging blood pathogens and for photodynamic therapy” (The Research Foundation of State University of New York, priority 2004, dated 2012)
Several values for one entry are separate records, joined by “and”; a condition that tells them apart may be missing. Identical values can stand only once. Entries after “also recorded” stand apart in the source; their conditions may differ. Like-named read-outs stand apart in the source and are kept apart here.

Key:
[1] = molecular target: Pgp (Homo sapiens, UniProt P08183); conditions: cited from earlier work
Pgp, sequence (P08183 whole entry): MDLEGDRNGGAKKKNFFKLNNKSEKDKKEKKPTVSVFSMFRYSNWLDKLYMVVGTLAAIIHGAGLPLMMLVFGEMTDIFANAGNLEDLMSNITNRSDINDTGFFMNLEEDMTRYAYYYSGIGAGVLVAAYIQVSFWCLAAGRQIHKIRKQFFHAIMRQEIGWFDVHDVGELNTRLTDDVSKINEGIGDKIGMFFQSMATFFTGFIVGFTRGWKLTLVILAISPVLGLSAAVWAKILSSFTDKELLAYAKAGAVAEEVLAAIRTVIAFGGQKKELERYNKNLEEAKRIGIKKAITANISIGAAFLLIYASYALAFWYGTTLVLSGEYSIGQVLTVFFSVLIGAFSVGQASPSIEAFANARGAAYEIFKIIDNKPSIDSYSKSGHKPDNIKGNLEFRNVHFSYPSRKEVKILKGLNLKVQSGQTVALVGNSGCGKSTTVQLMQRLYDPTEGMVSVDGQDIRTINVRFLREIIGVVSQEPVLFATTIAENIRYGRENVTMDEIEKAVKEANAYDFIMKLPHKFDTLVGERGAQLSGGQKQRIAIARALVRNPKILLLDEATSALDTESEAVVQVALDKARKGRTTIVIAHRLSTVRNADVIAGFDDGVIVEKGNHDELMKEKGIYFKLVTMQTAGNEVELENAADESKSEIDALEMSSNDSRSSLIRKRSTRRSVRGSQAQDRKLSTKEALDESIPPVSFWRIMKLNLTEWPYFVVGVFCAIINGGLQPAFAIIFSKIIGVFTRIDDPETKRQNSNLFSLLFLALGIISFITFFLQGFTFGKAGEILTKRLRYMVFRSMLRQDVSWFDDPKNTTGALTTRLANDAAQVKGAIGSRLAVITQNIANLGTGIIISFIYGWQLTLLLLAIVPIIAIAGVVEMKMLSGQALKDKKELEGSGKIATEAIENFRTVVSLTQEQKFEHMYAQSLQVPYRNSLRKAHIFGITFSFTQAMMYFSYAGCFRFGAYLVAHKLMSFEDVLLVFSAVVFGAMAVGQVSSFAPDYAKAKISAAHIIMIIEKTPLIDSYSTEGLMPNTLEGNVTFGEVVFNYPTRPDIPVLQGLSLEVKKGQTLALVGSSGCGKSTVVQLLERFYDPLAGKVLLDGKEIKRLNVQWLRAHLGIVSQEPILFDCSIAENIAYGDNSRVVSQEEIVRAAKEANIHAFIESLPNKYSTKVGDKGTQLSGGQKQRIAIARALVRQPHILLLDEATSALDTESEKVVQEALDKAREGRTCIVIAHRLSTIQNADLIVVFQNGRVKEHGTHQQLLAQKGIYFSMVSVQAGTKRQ

[2] = n-Octanol/water partition coefficient; conditions: pH-6 phosphate buffer as the aqueous phase
[3] = tested on: Pgp-expressing CR1R12 cells; test: Dye uptake into cell monolayers, CR1R12; assay type: cell-based, Chinese hamster; conditions: for Effect of verapamil on intracellular dye uptake: dye 1×10−5 M, 7×10−6 M verapamil 2 h before dye
[4] = tested on: AUXB1 cells; test: Dye uptake into cell monolayers, AUXB1; assay type: cell-based, Chinese hamster; conditions: dye 1×10−5 M for 1 h, 7×10−6 M verapamil
[5] = Reduction potential by cyclic voltammetry; conditions: in CH2Cl2, 0.2N Bu4NBF4; vs. ferrocene/ferrocinium couple (E° = +0.40 V)
[6] = tested on: CR1R12 cells; test: Photoradiation of cell cultures (cell viability), CR1R12; conditions: for Phototoxicity (cell viability): 5.0 J cm−2 light
Protocol: (§1) Cell lines were maintained in passage culture on 60-mm diameter polystyrene dishes (Corning Costar, Corning, N.Y.) in 4.0 mL Minimum Essential Medium (α-MEM) supplemented with 10% fetal bovine serum (FBS), 50 units mL^−1 penicillin G, 50 ug ml^−1 streptomycin and 1.0 ug mL^−1 Fungizone® (complete medium). Only cells from passages 1-10 were used for experiments. A stock of cells, passages 1-4, were maintained at −86° C. to initiate the experimental cultures. Cultures were maintained at 37° C. in a 5% CO2 humidified atmosphere (Forma Scientific, Marietta, Ohio). […] Cell counts were performed using a particle counter (Model ZM, Coulter Electronics, Hialeah, Fla.).
(§2) Photoradiation of Cell Cultures: Cell lines, AUXB1 or CR1R12, were seeded on 96-well plates in 200 μL/well α-MEM at 1-4×10^4 cells/well. Rhodamine analogues were then added directly to the cell culture medium at various concentrations and incubated for 2 h in the dark as above. The medium was then removed and 200 μL α-MEM minus FBS and phenol red (clear medium) were added to each well. One plate, with the lid removed, was then exposed to 350-750 nm light delivered at 1.4 mW cm^−2 for 1 h (5.0 J cm^−2) from a filtered halogen source while a parallel plate was kept in the dark during the irradiation period. Immediately following irradiation the clear medium was replaced with complete medium and the monolayers were incubated for an additional 24-h period. Subsequently, cells were trypsinized and counted using the Coulter counter to determine cell viability. Determination of cell viability by cell counting is performed according to an earlier method. […] Briefly, cells that detach from the surface of a culture plate stain with trypan blue, i.e. are nonviable, while all cells that remain attached to the surface exclude trypan blue, 100% viable. We were unable to seed new culture plates with cells that detached from the surface after treatment, while cells that remained attached after treatment continued to grow and multiply. Thus, we count only those cells that remain attached to the culture plate surface after treatment and compare those numbers with the cell numbers obtained from control cells, cells not exposed to either dye or light. Data are then expressed as percent cell viability, treated cell counts/control cell counts.

[7] = Absorption and fluorescence maxima in MeOH; conditions: for Fluorescence maximum λF: excitation at 532 nm; for Bathochromic shift in λmax: compared to TMR-O
[8] = Quantum yield for generation of singlet oxygen (direct luminescence detection, MeOH); assay type: physicochemical; conditions: rose bengal as a standard
[9] = Fluorescence quantum yields and radiative lifetimes; assay type: physicochemical; conditions: for Quantum yield for fluorescence φF ± sd: rhodamine 6G as a standard
[10] = tested on: intracellular VSV; assay type: cell-based
[11] = tested on: AUXB1 cells; test: Calcein AM uptake, AUXB1; assay type: cell-based, Chinese hamster; conditions: higher concentrations of dye plus light exposure
[12] = pH 6
[13] = tested on: CR1R12 cells
Protocol: as §1, §2

[14] = tested on: extracellular VSV; assay type: cell-based
[15] = molecular target: Pgp in CR1R12 cells (Cricetulus griseus, UniProt P21448); test: Calcein AM uptake, CR1R12; assay type: cell-based, Chinese hamster; conditions: dye 1×10−5 M for 2 h in the dark
Pgp in CR1R12 cells, sequence (P21448 whole entry): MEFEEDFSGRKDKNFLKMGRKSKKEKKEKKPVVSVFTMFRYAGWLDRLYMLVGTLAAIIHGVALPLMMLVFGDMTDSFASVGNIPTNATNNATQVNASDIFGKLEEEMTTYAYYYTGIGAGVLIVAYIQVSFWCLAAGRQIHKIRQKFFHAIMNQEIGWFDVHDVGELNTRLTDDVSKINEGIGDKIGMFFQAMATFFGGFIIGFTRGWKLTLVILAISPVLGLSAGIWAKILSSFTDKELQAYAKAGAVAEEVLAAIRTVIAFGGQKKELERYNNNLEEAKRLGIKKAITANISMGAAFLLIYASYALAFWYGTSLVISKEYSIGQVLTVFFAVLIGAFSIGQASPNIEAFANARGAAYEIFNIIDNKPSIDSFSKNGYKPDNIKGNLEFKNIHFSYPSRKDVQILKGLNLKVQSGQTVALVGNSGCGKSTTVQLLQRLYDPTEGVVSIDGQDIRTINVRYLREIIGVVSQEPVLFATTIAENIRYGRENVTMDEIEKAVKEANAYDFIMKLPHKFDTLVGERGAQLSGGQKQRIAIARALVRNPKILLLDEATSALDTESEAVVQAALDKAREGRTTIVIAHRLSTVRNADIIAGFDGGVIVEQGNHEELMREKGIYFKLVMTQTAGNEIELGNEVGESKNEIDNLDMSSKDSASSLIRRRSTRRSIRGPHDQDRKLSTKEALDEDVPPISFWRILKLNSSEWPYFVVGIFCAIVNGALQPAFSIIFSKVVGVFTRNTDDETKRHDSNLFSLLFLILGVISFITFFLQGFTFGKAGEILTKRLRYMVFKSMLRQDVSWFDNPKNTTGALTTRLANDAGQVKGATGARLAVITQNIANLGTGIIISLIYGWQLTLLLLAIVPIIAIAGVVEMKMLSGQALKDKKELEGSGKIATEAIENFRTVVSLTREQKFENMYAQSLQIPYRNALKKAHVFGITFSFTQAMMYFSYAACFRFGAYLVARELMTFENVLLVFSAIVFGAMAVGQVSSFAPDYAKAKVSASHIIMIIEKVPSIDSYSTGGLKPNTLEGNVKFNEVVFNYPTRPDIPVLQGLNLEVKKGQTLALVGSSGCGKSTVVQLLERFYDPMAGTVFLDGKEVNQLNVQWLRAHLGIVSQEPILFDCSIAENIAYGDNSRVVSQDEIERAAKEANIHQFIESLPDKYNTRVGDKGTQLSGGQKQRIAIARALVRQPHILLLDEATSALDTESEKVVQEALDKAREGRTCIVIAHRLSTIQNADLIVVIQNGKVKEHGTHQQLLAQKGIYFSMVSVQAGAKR

[16] = tested on: AUXB1 cells
Protocol: as §1
Photoradiation of Cell Cultures: Cell lines, AUXB1 or CR1R12, were seeded on 96-well plates in 200 μL/well α-MEM at 1-4×10^4 cells/well. Rhodamine analogues were then added directly to the cell culture medium at various concentrations and incubated for 2 h in the dark as above. The medium was then removed and 200 μL α-MEM minus FBS and phenol red (clear medium) were added to each well. […] Subsequently, cells were trypsinized and counted using the Coulter counter to determine cell viability. […] Data are then expressed as percent cell viability, treated cell counts/control cell counts.

[17] = over a wide range of concentrations

Structure (SMILES) | Inhibition of Pgp function [1] | Pgp transport substrate [1] | Effect of verapamil on intracellular dye uptake [3] | Intracellular dye accumulation in absence vs presence of verapamil [4] | Reduction potential E° [5] [V] | Phototoxicity (cell viability) ([6]; after 2 h 7×10−6 M verapamil) | Absorption maximum λmax [7] [nm] | log ε at λmax [7] | Fluorescence maximum λF [7] [nm] | Quantum yield for generation of singlet oxygen φ(1O2) ± sd [8] | Radiative lifetime τrad [9] | Quantum yield for fluorescence φF ± sd [9] | CAM uptake [11] | n-Octanol/water partition coefficient log P [12] | Cell viability, dye alone in the dark [13] | Bathochromic shift in λmax [7] [nm] | Change in intracellular accumulation of CAM [15] | other results
COC(=O)c1ccccc1-c1c2ccc(=N)cc-2oc2cc(N)ccc12 [Rh123, rhodamine 123] | do not inhibit Pgp function | transport substrates for Pgp |  |  |  |  |  |  |  |  |  |  |  |  |  |  |  | 
CN(C)c1ccc2c(-c3ccccc3)c3ccc(=[N+](C)C)cc-3oc2c1 [TMR-O, Tetramethylrosamine, reference compound] | do not inhibit Pgp function | transport substrates for Pgp | verapamil enhances the uptake; also recorded: significantly enhanced | similar | −0.94 | no significant phototoxicity | 552 | 4.92 | 575 | 0.08 and 0.08 ± 0.01 | 2.1±0.1 ns | 0.84 and 0.84 ± 0.01 |  |  |  |  |  | n-Octanol/water partition coefficient log P [2]: 1.5; Phototoxicity (cell viability) ([6]; without verapamil): no significant phototoxicity; Cell viability, dye alone in the dark ([6]; same conditions without light): no significant loss in cell viability
CN(C)c1ccc2[s+]c3ccc(N(C)C)cc3c(-c3ccccc3)c2c1.[Cl-] [TMR-S, 2,7-Bis-N,N-dimethylamino-9-phenylthioxanthylium Chloride] |  |  | significantly enhanced | similar | −0.79 | significant cytotoxicity | 571 | 4.70 | 599 | 0.21 and 0.21 ± 0.02 | 1.5±0.1 ns | 0.44 and 0.44 ± 0.01 | virtually abolished CAM uptake | 1.2 | no significant loss in cell viability | 20 | no significant change | Increase in dye uptake in the presence of verapamil ([3]; dye 1×10−5 M for 1 h, 7×10−6 M verapamil): more than 3 fold; Inactivation of intracellular VSV ([10]; 50 μM and 7.4 J cm−2): 1.5 log10; Inactivation of extracellular VSV ([14]; 5 μM, 7.4 J cm−2 light, 20% hematocrit red cells): More than 8 log10
CN(C)c1ccc2[se+]c3ccc(N(C)C)cc3c(-c3ccccc3)c2c1.[Cl-] [TMR-Se, 2,7-Bis-N,N-dimethylamino-9-phenylselenoxanthylium Chloride] |  |  |  |  | −0.77 | significant cytotoxicity; also recorded: significant phototoxicity | 582 | 4.84 | 608 | 0.87 and 0.87 ± 0.01 | approximately 50 ps | 0.009 and 0.009 ± 0.001 | virtually abolished CAM uptake | 1.1 | no significant loss in cell viability | 30 | no significant change | Inactivation of intracellular VSV ([10]; under the TMR-Se conditions of b117 (1-5 μM, 2 J cm−2)): 0.5 log10; Cell viability, dye alone in the dark [16]: no significant loss in cell viability; Phototoxicity (cell viability) ([16]; AUXB1 cells, light, with or without 7×10−6 M verapamil): equally susceptible to phototoxicity; Inactivation of extracellular VSV ([14]; 1 μM, 2 J cm−2 light, 20% hematocrit red cells): > 7.4 log10; Inactivation of extracellular VSV ([14]; 5 μM, 2 J cm−2 light, 45% hematocrit red cells): > 7.4 log10
CN(C)c1ccc2sc3ccc(N(C)C)cc3c(=O)c2c1 [compound 2] |  |  |  |  |  |  |  |  |  |  |  |  |  |  |  |  |  | Intracellular virucidal activity [10, 17]: < 0.5 log10; Extracellular virucidal activity [14, 17]: < 2.5 log10
